From ChEMBL document CHEMBL5150025, “Exploratory study of oxatomide derivatives with high P2X7 receptor inhibitory activity” (Bioorg Med Chem Lett, 2022) come the findings set out here.

One assay has as its target T1, P2X purinoceptor 7 (Homo sapiens, UniProt Q99572).
T1 sequence (Q99572 whole entry): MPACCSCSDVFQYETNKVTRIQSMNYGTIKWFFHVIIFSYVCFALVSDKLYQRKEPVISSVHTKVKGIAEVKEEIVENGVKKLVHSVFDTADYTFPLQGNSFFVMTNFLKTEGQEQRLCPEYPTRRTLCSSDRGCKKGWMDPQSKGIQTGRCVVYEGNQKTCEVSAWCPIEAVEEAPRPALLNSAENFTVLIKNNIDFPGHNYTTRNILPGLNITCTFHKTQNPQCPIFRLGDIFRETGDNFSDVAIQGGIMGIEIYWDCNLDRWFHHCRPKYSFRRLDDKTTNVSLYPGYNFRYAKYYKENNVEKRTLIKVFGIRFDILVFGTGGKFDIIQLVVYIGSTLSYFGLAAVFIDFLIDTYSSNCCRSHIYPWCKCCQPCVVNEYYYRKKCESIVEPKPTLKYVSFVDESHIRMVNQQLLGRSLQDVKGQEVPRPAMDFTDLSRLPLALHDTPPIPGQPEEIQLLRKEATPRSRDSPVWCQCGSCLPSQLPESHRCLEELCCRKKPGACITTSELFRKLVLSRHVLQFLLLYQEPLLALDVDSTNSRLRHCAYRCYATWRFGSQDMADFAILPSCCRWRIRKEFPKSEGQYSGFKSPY
In words: Antagonist activity at P2X7 receptor in human RPMI-8226 cells assessed as inhibition of ATP-induced Ca2+ influx by fura-2 staining based assay. The class given is cell-based.

Assay [1] concerns the target T2, P2X purinoceptor 7 (Homo sapiens) (UniProt Q99572).
T2 sequence (whole entry): T1 sequence (Q99572 whole entry)
The assay is described as follows: Antagonist activity at P2X7 receptor in human RPMI-8226 cells assessed as inhibition of ATP-induced Ca2+ influx at 10 uM by fura-2 staining based assay relative to control. The class given is cell-based. The conditions noted are these: filed as antagonist.

As a reminder, the IC50 is the concentration that inhibits the measured activity by half. What is called inhibition is the change of the read-out against control, counted positive when it falls.

Regarding `c1ccc(C(c2ccccc2)N2CCN(CCCCn3ccc4cnccc43)CC2)cc1`, the half-inhibitory concentration (IC50) on P2X purinoceptor 7 was determined as 460 nM. Regarding `O=c1[nH]c2ccccc2n1C/C=C/CN1CCN(C(c2ccccc2)c2ccccc2)CC1`, on P2X purinoceptor 7, the IC50 was more than 10000 nM. Moreover, the inhibition in assay [1] turned out to be 81%. As to `COc1ccc2c(ccn2CCCCN2CCN(C(c3ccccc3)c3ccccc3)CC2)c1`, the IC50 on P2X purinoceptor 7 was more than 10000 nM. Also, the inhibition in assay [1] came out at 54%.

`O=C(C(c1ccccc1)c1ccccc1)N1CCN(CCCn2c(=O)[nH]c3ccccc32)CC1`: the IC50 at P2X purinoceptor 7 came out at 7800 nM. Regarding `Cc1ccc(S(=O)(=O)N2CCN(CCCn3c(=O)[nH]c4ccccc43)CC2)cc1`, the IC50 on P2X purinoceptor 7 is more than 10000 nM. Also, in assay [1], the inhibition came out at 64%.

`c1ccc(-c2nc3ccccc3n2CCCCN2CCN(C(c3ccccc3)c3ccccc3)CC2)cc1`: the IC50 on P2X purinoceptor 7 is 1200 nM. On to `O=c1[nH]c2ccccc2n1CCCCCN1CCN(C(c2ccccc2)c2ccccc2)CC1`, for which the IC50 at P2X purinoceptor 7 was determined as 560 nM.

Regarding `O=c1[nH]c2ccccc2n1CCCN1CCC(C(O)(c2ccccc2)c2ccccc2)CC1`, the IC50 at P2X purinoceptor 7 turned out to be 7500 nM.

As for `Cc1cccc2c1ccn2CCCCN1CCN(C(c2ccccc2)c2ccccc2)CC1`, at P2X purinoceptor 7, the IC50 worked out at 5300 nM. On the same count and under the same terms, with `Fc1ccc2ccn(CCCCN3CCN(C(c4ccccc4)c4ccccc4)CC3)c2c1` the figure was 110 nM; with `Cc1nccn1CCCCN1CCN(C(c2ccccc2)c2ccccc2)CC1`, 3400 nM; with `N#Cc1cn(CCCCN2CCN(C(c3ccccc3)c3ccccc3)CC2)c2ccccc12`, 1500 nM. Regarding `c1ccc(C(c2ccccc2)N2CCN(CCCCn3nnc4ccccc43)CC2)cc1`, the IC50 on P2X purinoceptor 7 amounted to 480 nM. Turning to `O=c1[nH]c2ccccc2n1CCCN1CCN(S(=O)(=O)c2ccc(F)cc2)CC1`, the half-maximal inhibitory concentration (IC50) at P2X purinoceptor 7 was more than 10000 nM. In assay [1], the inhibition was 87%.

As to `Cc1ccc2ccn(CCCCN3CCN(C(c4ccccc4)c4ccccc4)CC3)c2c1`, the half-maximal inhibitory concentration (IC50) at P2X purinoceptor 7 is 6500 nM. On the same count and under the same terms, for `Fc1cc2ccn(CCCCN3CCN(C(c4ccccc4)c4ccccc4)CC3)c2cc1F` the value was 130 nM. As to `c1ccc(C(c2ccccc2)N2CCN(CCCCn3cncn3)CC2)cc1`, the IC50 on P2X purinoceptor 7 was more than 10000 nM. The inhibition in assay [1] stood at 87%. With `c1ccc(C(c2ccccc2)N2CCN(CCCCn3ccc4cccnc43)CC2)cc1`, on P2X purinoceptor 7, the IC50 was 180 nM. For `Fc1cccc2c1ccn2CCCCN1CCN(C(c2ccccc2)c2ccccc2)CC1`, the IC50 on P2X purinoceptor 7 is 150 nM. Turning to `Cc1cc2ncn(CCCCN3CCN(C(c4ccccc4)c4ccccc4)CC3)c2cc1C`, the IC50 on P2X purinoceptor 7 stood at 770 nM. Take `Cc1nc2ccccc2n1CCCCN1CCN(C(c2ccccc2)c2ccccc2)CC1`: the IC50 on P2X purinoceptor 7 amounted to 850 nM. In the case of `c1ccc(C(c2ccccc2)N2CCN(CCCCn3ncc4ccccc43)CC2)cc1`, the IC50 on P2X purinoceptor 7 turned out to be 190 nM. Take `c1ccc(C(c2ccccc2)N2CCN(CCCCn3ccc4ccncc43)CC2)cc1`: the IC50 at P2X purinoceptor 7 came to 240 nM. The same measure, in the same setting: for `Fc1ccc2c(ccn2CCCCN2CCN(C(c3ccccc3)c3ccccc3)CC2)c1` the value was 120 nM; for `O=c1[nH]c2ccccc2n1CCCCN1CCN(C(c2ccccc2)c2ccccc2)CC1`, 180 nM; for `N#Cc1ccc2c(ccn2CCCCN2CCN(C(c3ccccc3)c3ccccc3)CC2)c1`, 3800 nM. As to `c1ccc(C(c2ccccc2)N2CCN(CCCCn3ccc4ccccc43)CC2)cc1`, the IC50 on P2X purinoceptor 7 turned out to be 120 nM. The same measure, in the same setting: with `O=c1[nH]c2ccccc2n1CCCN1CCC(=C(c2ccccc2)c2ccccc2)CC1` the figure was 2400 nM; with `Cc1cccc2ccn(CCCCN3CCN(C(c4ccccc4)c4ccccc4)CC3)c12`, 2300 nM.

For `O=c1[nH]c2ccccc2n1CCCN1CCN(S(=O)(=O)c2ccc([N+](=O)[O-])cc2)CC1`, the IC50 on P2X purinoceptor 7 was more than 10000 nM. In addition, in assay [1], the inhibition was found to be 72%.

For the compound `c1ccc(C(c2ccccc2)N2CCN(CCCCn3cnc4ccccc43)CC2)cc1`, on P2X purinoceptor 7, the IC50 worked out at 180 nM.

For the compound `O=c1[nH]c2ccccc2n1CCN1CCN(C(c2ccccc2)c2ccccc2)CC1`, the half-maximal inhibitory concentration (IC50) at P2X purinoceptor 7 was 950 nM. Consider `O=c1[nH]c2ccccc2n1CCCN1CCN(C(c2ccccc2)c2ccccc2)CC1` [OXATOMIDE], for which, on P2X purinoceptor 7, the half-maximal inhibitory concentration (IC50) was determined as 830 nM. The same measure, in the same setting: for `Cc1nnnn1CCCCN1CCN(C(c2ccccc2)c2ccccc2)CC1` the value was 4500 nM; for `c1ccc(-c2nnnn2CCCCN2CCN(C(c3ccccc3)c3ccccc3)CC2)cc1`, 3200 nM; for `O=c1[nH]c2ccccc2n1CCCN1CCN(C2c3ccccc3CCc3ccccc32)CC1`, 5200 nM. The same measure, in the same setting: for `c1ccc(C(c2ccccc2)N2CCN(CCCCn3ccc4ncccc43)CC2)cc1` the value was 320 nM; for `COC(=O)c1cccc2ccn(CCCCN3CCN(C(c4ccccc4)c4ccccc4)CC3)c12`, more than 10000 nM.
